Source: PubChem BioAssay (NCI)
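Assay format: 96-well plates, 48-hour exposure. GI50: concentration for 50% inhibition of growth. TGI is the concentration that stops growth completely.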

How the values were obtained:
Assay in all cases: growth of human tumour cells (NCI), 48 h
MOLT-4 leukemia = tested on: MOLT-4 leukemia
MALME-3M melanoma = tested on: MALME-3M melanoma
M14 melanoma = tested on: M14 melanoma
SK-MEL-5 melanoma = tested on: SK-MEL-5 melanoma
HCC-2998 colon = tested on: HCC-2998 colon
HCT-116 colon = tested on: HCT-116 colon
SF-295 CNS = tested on: SF-295 CNS
RPMI-8226 leukemia = tested on: RPMI-8226 leukemia
SK-MEL-28 melanoma = tested on: SK-MEL-28 melanoma
UACC-257 melanoma = tested on: UACC-257 melanoma
UACC-62 melanoma = tested on: UACC-62 melanoma
SK-OV-3 ovarian = tested on: SK-OV-3 ovarian
DU-145 prostate = tested on: DU-145 prostate
IGROV1 ovarian = tested on: IGROV1 ovarian
SNB-19 CNS = tested on: SNB-19 CNS
SR leukemia = tested on: SR leukemia
SK-MEL-2 melanoma = tested on: SK-MEL-2 melanoma
SW-620 colon = tested on: SW-620 colon
OVCAR-5 ovarian = tested on: OVCAR-5 ovarian
CCRF-CEM leukemia = tested on: CCRF-CEM leukemia
SF-539 CNS = tested on: SF-539 CNS
NCI/ADR-RES ovarian = tested on: NCI/ADR-RES ovarian
MCF7 breast = tested on: MCF7 breast
786-0 renal = tested on: 786-0 renal
SNB-75 CNS = tested on: SNB-75 CNS
HT29 colon = tested on: HT29 colon
COLO 205 colon = tested on: COLO 205 colon
PC-3 prostate = tested on: PC-3 prostate
UO-31 renal = tested on: UO-31 renal
A549 NSCLC = tested on: A549 NSCLC
BT-549 breast = tested on: BT-549 breast
MDA-MB-231 breast = tested on: MDA-MB-231 breast
NCI-H522 lung = tested on: NCI-H522 lung
HOP-62 NSCLC = tested on: HOP-62 NSCLC
K-562 leukemia = tested on: K-562 leukemia
LOX IMVI melanoma = tested on: LOX IMVI melanoma
ACHN renal = tested on: ACHN renal
CAKI-1 renal = tested on: CAKI-1 renal
NCI-H460 lung = tested on: NCI-H460 lung
OVCAR-4 ovarian = tested on: OVCAR-4 ovarian
HOP-92 NSCLC = tested on: HOP-92 NSCLC
A498 renal = tested on: A498 renal
OVCAR-3 ovarian = tested on: OVCAR-3 ovarian
RXF 393 renal = tested on: RXF 393 renal
U251 CNS = tested on: U251 CNS
OVCAR-8 ovarian = tested on: OVCAR-8 ovarian
EKVX NSCLC = tested on: EKVX NSCLC
SN12C renal = tested on: SN12C renal
HS 578T breast = tested on: HS 578T breast
SF-268 CNS = tested on: SF-268 CNS
TK-10 renal = tested on: TK-10 renal
MDA-MB-435 = tested on: MDA-MB-435
HCT-15 colon = tested on: HCT-15 colon
T-47D breast = tested on: T-47D breast
KM12 colon = tested on: KM12 colon
NCI-H23 lung = tested on: NCI-H23 lung
NCI-H226 lung = tested on: NCI-H226 lung

Structure (SMILES): O=[N+]([O-])c1ccc(N/N=C/c2c(O)ccc3ccccc23)nc1
- GI50 (MOLT-4 leukemia): 1.62 µM
- TGI (MOLT-4 leukemia): > 100 µM
- GI50 (MALME-3M melanoma): 27.8 µM
- TGI (MALME-3M melanoma): > 100 µM
- GI50 (M14 melanoma): 16.4 µM
- TGI (M14 melanoma): > 100 µM
- GI50 (SK-MEL-5 melanoma): 20.1 µM
- TGI (SK-MEL-5 melanoma): > 100 µM
- GI50 (HCC-2998 colon): 28.8 µM
- TGI (HCC-2998 colon): > 100 µM
- GI50 (HCT-116 colon): 3.16 µM
- TGI (HCT-116 colon): > 100 µM
- GI50 (SF-295 CNS): 4.9 µM
- TGI (SF-295 CNS): > 100 µM
- GI50 (RPMI-8226 leukemia): > 100 µM
- TGI (RPMI-8226 leukemia): > 100 µM
- GI50 (SK-MEL-28 melanoma): > 100 µM
- TGI (SK-MEL-28 melanoma): > 100 µM
- GI50 (UACC-257 melanoma): 8.75 µM
- TGI (UACC-257 melanoma): > 100 µM
- GI50 (UACC-62 melanoma): 9.82 µM
- TGI (UACC-62 melanoma): > 100 µM
- GI50 (SK-OV-3 ovarian): > 100 µM
- TGI (SK-OV-3 ovarian): > 100 µM
- GI50 (DU-145 prostate): 6.77 µM
- TGI (DU-145 prostate): > 100 µM
- GI50 (IGROV1 ovarian): 7.48 µM
- TGI (IGROV1 ovarian): > 100 µM
- GI50 (SNB-19 CNS): > 100 µM
- TGI (SNB-19 CNS): > 100 µM
- GI50 (SR leukemia): 0.665 µM
- TGI (SR leukemia): > 100 µM
- GI50 (SK-MEL-2 melanoma): > 100 µM
- TGI (SK-MEL-2 melanoma): > 100 µM
- GI50 (SW-620 colon): 3.61 µM
- TGI (SW-620 colon): > 100 µM
- GI50 (OVCAR-5 ovarian): > 100 µM
- TGI (OVCAR-5 ovarian): > 100 µM
- GI50 (CCRF-CEM leukemia): 0.918 µM
- TGI (CCRF-CEM leukemia): > 100 µM
- GI50 (SF-539 CNS): 11.1 µM
- TGI (SF-539 CNS): > 100 µM
- GI50 (NCI/ADR-RES ovarian): 1.82 µM
- TGI (NCI/ADR-RES ovarian): > 100 µM
- GI50 (MCF7 breast): 1.91 µM
- TGI (MCF7 breast): > 100 µM
- GI50 (786-0 renal): 13.3 µM
- TGI (786-0 renal): > 100 µM
- GI50 (SNB-75 CNS): > 100 µM
- TGI (SNB-75 CNS): > 100 µM
- GI50 (HT29 colon): > 100 µM
- TGI (HT29 colon): > 100 µM
- GI50 (COLO 205 colon): 30.5 µM
- TGI (COLO 205 colon): > 100 µM
- GI50 (PC-3 prostate): 48.7 µM
- TGI (PC-3 prostate): > 100 µM
- GI50 (UO-31 renal): 1.25 µM
- TGI (UO-31 renal): > 100 µM
- GI50 (A549 NSCLC): 27.7 µM
- TGI (A549 NSCLC): > 100 µM
- GI50 (BT-549 breast): 39.8 µM
- TGI (BT-549 breast): > 100 µM
- GI50 (MDA-MB-231 breast): 15.9 µM
- TGI (MDA-MB-231 breast): > 100 µM
- GI50 (NCI-H522 lung): 3.74 µM
- TGI (NCI-H522 lung): > 100 µM
- GI50 (HOP-62 NSCLC): 6.82 µM
- TGI (HOP-62 NSCLC): > 100 µM
- GI50 (K-562 leukemia): > 100 µM
- TGI (K-562 leukemia): > 100 µM
- GI50 (LOX IMVI melanoma): 1.26 µM
- TGI (LOX IMVI melanoma): > 100 µM
- GI50 (ACHN renal): 0.775 µM
- TGI (ACHN renal): > 100 µM
- GI50 (CAKI-1 renal): 0.518 µM
- TGI (CAKI-1 renal): > 100 µM
- GI50 (NCI-H460 lung): 3.3 µM
- TGI (NCI-H460 lung): > 100 µM
- GI50 (OVCAR-4 ovarian): 0.783 µM
- TGI (OVCAR-4 ovarian): > 100 µM
- GI50 (HOP-92 NSCLC): 7.94 µM
- TGI (HOP-92 NSCLC): 99.4 µM
- GI50 (A498 renal): > 100 µM
- TGI (A498 renal): > 100 µM
- GI50 (OVCAR-3 ovarian): 0.517 µM
- TGI (OVCAR-3 ovarian): > 100 µM
- GI50 (RXF 393 renal): > 100 µM
- TGI (RXF 393 renal): > 100 µM
- GI50 (U251 CNS): 5.01 µM
- TGI (U251 CNS): > 100 µM
- GI50 (OVCAR-8 ovarian): 5.78 µM
- TGI (OVCAR-8 ovarian): > 100 µM
- GI50 (EKVX NSCLC): 6.5 µM
- TGI (EKVX NSCLC): > 100 µM
- GI50 (SN12C renal): 48.5 µM
- TGI (SN12C renal): > 100 µM
- GI50 (HS 578T breast): 57.8 µM
- TGI (HS 578T breast): > 100 µM
- GI50 (SF-268 CNS): 4 µM
- TGI (SF-268 CNS): > 100 µM
- GI50 (TK-10 renal): 55.9 µM
- TGI (TK-10 renal): > 100 µM
- GI50 (MDA-MB-435): 55.2 µM
- TGI (MDA-MB-435): > 100 µM
- GI50 (HCT-15 colon): 0.655 µM
- TGI (HCT-15 colon): > 100 µM
- GI50 (T-47D breast): 6.39 µM
- TGI (T-47D breast): > 100 µM
- GI50 (KM12 colon): 8.73 µM
- TGI (KM12 colon): > 100 µM
- GI50 (NCI-H23 lung): > 100 µM
- TGI (NCI-H23 lung): > 100 µM
- GI50 (NCI-H226 lung): 93.8 µM
- TGI (NCI-H226 lung): > 100 µM
